Measurements published in patent publication US10123985B2, “Therapeutic strategies for treating mitochondrial disorders” (Whitehead Institute for Biomedical Research, priority 2015, dated 2018).
Entries after “also recorded” stand apart in the source; their conditions may differ.

How the values were obtained:
[1] = test system: 143B CytB cells; assay: Proliferation assay of respiration-incompetent 143B CytB cybrid cells; assay type: cell-based; settings: media supplemented with the substance; no pyruvate unless tested, uridine present
Method: FL5.12 cells were cultured in the same medium and supplemented with 5 μg/mL recombinant mouse IL-3 (R&D Systems). […] All cells incubated at 37° C. with 5% CO2.
Adherent cell lines growing in log phase were trypsinized, counted, and plated onto 6 well dishes (Corning) in 2 mL complete DMEM and incubated overnight. […] The following day, one plate of cells was counted to determine the initial cell count at the time of treatment. Cells were washed 2 times with 2 mL phosphate buffered saline (PBS) and 4 mL media premixed with the indicated treatments was added. FL5.12 cells, a suspension cell line, were washed 2 times in PBS and added directly to media containing the indicated treatments and 5 μg/mL recombinant mouse IL-3. Proliferation rate assay media was DMEM without pyruvate containing 10% dialyzed FBS, penicillin-streptomycin, and 0.1 mg/mL uridine, unless otherwise noted. […] Cells were counted using Cellometer Auto T4 Plus Cell Counter (Nexcelom Bioscience). Proliferation rate was determined using the following formula: Proliferation Rate (Doublings per day)=(log2(Final cell count (day 5)/Initial cell count (day 1))/4 (days)

[2] = test system: 143B cells; assay: 13C asparagine labelling, GCMS of aspartate and released asparagine; assay type: cell-based
Method: FIG. 26. […] (A) Proliferation rate was measured after 4 days in DMEM without pyruvate and the indicated media conditions. Untr; Untreated. AKB; 1 mM alpha-ketobutyrate. Asp; 20 mM aspartate. Asn; asparagine, with the indicated concentrations. (B) GCMS measurement of intracellular levels of aspartate after 24 hours from the indicated treatment conditions. Aspartate levels are shown as the log2 of the measured total ion count (TIC). (C) The proliferation rate from FIG. 26A and the aspartate levels from FIG. 26B were graphed against one another to show a correlation between aspartate levels and proliferation rate. Grey triangles are the untreated conditions, blue squares are the AKB conditions, and green dots are the 1 mM ASN conditions. (D) GCMS measurement of intracellular aspartate levels after a 24-hour incubation in untreated media or media treated with 1 mM ^13C asparagine. The bars are split to show the fraction of aspartate that is unlabeled (M+0) and the fraction of aspartate that is labeled with 4 ^13C carbons (M+4). (E) GCMS measurement of unlabeled (M+0) asparagine released into the media (de novo produced asparagine) after a 24-hour incubation in untreated media or media treated with 1 mM ^13C asparagine.
The mechanism by which extracellular asparagine treatment can restore intracellular aspartate levels was also investigated. First, we treated 143B cells with 1 mM asparagine containing four ^13C carbon atoms. […] The small fraction containing labeled aspartate was likely from ^13C aspartate contamination in the ^13C asparagine added to the media. […] One plausible mechanism by which providing the cells with extracellular asparagine would decrease intracellular aspartate consumption is through product inhibition of asparagine synthetase (ASNS) activity. Decreased ASNS activity would decrease aspartate consumption and therefore increased aspartate levels. To test this, we measured the release of unlabeled asparagine in the media of untreated cells or cells treated with 1 mM ^13C asparagine. […]

[3] = test system: 143B cells; assay: Proliferation assay of wild-type 143B cells treated with respiration inhibitors; assay type: cell-based; settings: asparagine
Method: (§1) 143B, A172, H1299, HeLa, U87 and MEF cells were cultured in Dulbecco's Modified Eagle's Medium (DMEM) (Gibco) supplemented with 10% fetal bovine serum (FBS) and penicillin-streptomycin. FL5.12 cells were cultured in the same medium and supplemented with 5 μg/mL recombinant mouse IL-3 (R&D Systems). 143B cybrid cell lines (WT Cybrid and CytB) were cultured in DMEM with 10% FBS, penicillin-streptomycin, and 0.1 mg/mL uridine. All cells incubated at 37° C. with 5% CO2.
(§2) Adherent cell lines growing in log phase were trypsinized, counted, and plated onto 6 well dishes (Corning) in 2 mL complete DMEM and incubated overnight. Initial seeding density was 2E4 cells per well for 143B, A172, H1299, HeLa, 143B WT Cybrid, and MEFs and 3E4 cells for 143B CytB and U87 cells. The following day, one plate of cells was counted to determine the initial cell count at the time of treatment. Cells were washed 2 times with 2 mL phosphate buffered saline (PBS) and 4 mL media premixed with the indicated treatments was added. FL5.12 cells, a suspension cell line, were washed 2 times in PBS and added directly to media containing the indicated treatments and 5 μg/mL recombinant mouse IL-3. Proliferation rate assay media was DMEM without pyruvate containing 10% dialyzed FBS, penicillin-streptomycin, and 0.1 mg/mL uridine, unless otherwise noted. For these cell lines at these seeding densities it was determined that for 4 days the cells maintained logarithmic proliferation (data not shown), therefore final cell counts were measured 4 days after treatment. Cells were counted using Cellometer Auto T4 Plus Cell Counter (Nexcelom Bioscience). Proliferation rate was determined using the following formula: Proliferation Rate (Doublings per day)=(log2(Final cell count (day 5)/Initial cell count (day 1))/4 (days)

[4] = test system: 143B cells; assay: Amino acid and TCA cycle metabolite GC-MS analysis, 143B cells; assay type: cell-based; settings: for TCA metabolite, aspartate and glutamate pool sizes: wild-type 143B cells, respiration inhibitor alone
Method: 143B and 143B CytB cells were seeded at 400,000 cells/well in 6 well dishes overnight. The following day, cells were washed 2 times in PBS and media was changed to proliferation assay media with or without the indicated treatments. […] Soluble content was then dried under nitrogen gas. Polar samples were derivatized and measured as detailed in (Lewis). Relative metabolite abundances were determined by integrating ion peak area (Metran) and normalized to norvaline internal extraction standard.

[5] = test system: A172, H1299, HeLa, U87, FL5.12, and MEF cell lines; assay: Proliferation assay of a panel of cell lines treated with respiration inhibitors; assay type: cell-based; settings: respiration inhibitor alone
Method: as §1, §2

[6] = test system: Jurkat cells; assay: Proliferation assay (Cell Titer Glo, 5 days) of wild type and knock-out Jurkat cells; assay type: cell-based, human; settings: 5-day treatment
Method: sgRNAs (oligonucleotide sequences are indicated above) were cloned into lentiCRISPR-v1 linearized with BsmBI by Gibson Assembly (NEB). sgRNA expressing vector along with lentiviral packaging vectors Delta-VPR and CMV VSVG were transfected into HEK-293T cells using the XTremeGene 9 transfection reagent (Roche). Similarly, for overexpression cell lines, cDNA vectors along with retroviral packaging vectors gag-pol and CMV VSV-G were transfected into HEK-293T cells. Media was changed 24 hours after transfection.

[7] = test system: Raji lymphoma and KMS-26 multiple myeloma cells; assay type: cell-based, human; settings: 5-day treatment
Method: […]. Media was changed 24 hours after transfection.

[8] = test system: A549 lung carcinoma xenografts; assay: A549 xenograft study with metformin; assay type: in vivo, nude mice
Method: FIG. 27. In vivo mitochondrial inhibition inhibits cellular proliferation and decreases intracellular growth rate. (A) A549 xenografts in nude mice were treated with varying doses of the mitochondrial inhibitor, metformin, once a day by oral gavage at the indicated concentrations. LCMS measurement of (B) serum and (C) tumor metformin concentration for the indicated metformin treatment conditions. (D) GCMS measurement of intracellular aspartate levels in the tumors following 10 days of the indicated treatment. Aspartate levels are shown as aspartate total ion count (TIC) normalized to leucine TIC.
An in vivo correlation between mitochondrial inhibition and growth inhibition, and further, a correlation between the degree of growth inhibition and intracellular aspartate levels were shown in a xenograft study. A549 lung carcinoma cells were xenografted into nude mice, and the cells were allowed to grow until they formed a tumor 50 mm^3 in volume. When the tumors reached 50 mm^3, the mice were randomly sorted into three groups and treated once a day by oral gavage with vehicle or the mitochondrial inhibitor metformin (500 mg/kg or 1500 mg/kg).

[9] = 1 mM 13C asparagine, 24-hour incubation
[10] = metformin 500 mg/kg or 1500 mg/kg once a day by oral gavage

Molecule: COC(=O)CCC(=O)C(=O)OC [dimethyl α-ketoglutarate, reference compound]
- Proliferation rate of 143B CytB cells [1]: able to restore some proliferation to 143B CytB cells, albeit at a much lower capacity than aspartate

Molecule: NC(=O)C[C@H](N)C(=O)O [^13C asparagine]
- Intracellular aspartate levels [2, 9]: did increase intracellular aspartate levels
- Labelling of intracellular aspartate pool [2, 9]: nearly all of the intracellular aspartate pool was unlabeled (M+0)

Molecule: NC(=O)C[C@H](N)C(=O)O [asparagine]
- Release of unlabeled (de novo produced) asparagine into the media ([2]; 1 mM 13C asparagine versus untreated, 24 hours): produce less asparagine
- Proliferation of rotenone treated 143B cells ([3]; high doses of rotenone): not able to restore proliferation
- Proliferation of rotenone treated 143B cells ([3]; low doses of rotenone): sufficient to restore proliferation; also recorded: restores intracellular aspartate levels and proliferation in rotenone treated cells
- Restoration of intracellular aspartate compared to AKB ([4]; rotenone treated 143B cells, 1 mM asparagine): incomplete compared to AKB
- Intracellular aspartate levels ([4]; rotenone treated 143B cells, 24 hours, AKB or 1 mM asparagine): increased intracellular aspartate; also recorded: restores intracellular aspartate levels and proliferation in rotenone treated cells

Molecule: CC[C@H]1/C=C/C=C/C[C@@H](C)[C@H](O)[C@@](C)(O)C(=O)[C@@H](C)[C@H](O)[C@@H](C)C(=O)[C@@H](C)[C@H](O)[C@@H](C)/C=C/C(=O)O[C@@H]2[C@H](C)[C@H](CC1)O[C@]1(CC[C@H](C)[C@H](C[C@@H](C)O)O1)[C@H]2C [oligomycin, reference compound]
- TCA metabolite, aspartate and glutamate pool sizes [4]: decreases in TCA metabolites and aspartate, but not glutamate
- Proliferation of cell line panel [5]: blocked proliferation

Molecule: C/C=C(\C)[C@H](O)[C@H](C)/C=C(C)/C=C/C/C(C)=C/Cc1nc(OC)c(OC)c(O)c1C [piericidin, reference compound]
- Sensitivity of GOT1-null versus wild-type cells to other ETC inhibitors [6]: GOT1-null cells die; also recorded: substantially more sensitive
- Viability of GOT1-null KMS-26 and Raji cells with other mitochondrial toxins [7]: GOT1-null KMS-26 and Raji cells die

Molecule: CN(C)C(=N)N=C(N)N [metformin]
- Sensitivity of GOT1-null versus wild-type cells to other ETC inhibitors [6]: substantially more sensitive; also recorded: GOT1-null cells die
- Normalized intracellular aspartate levels in tumors ([8]; 10 days of treatment, aspartate TIC normalized to leucine TIC): decrease in a dose-dependent manner
- Tumor concentration of metformin ([8]; escalating doses of metformin): increased tumor concentration of metformin
- Serum concentrations of metformin [8, 10]: at concentrations that would be therapeutically relevant and tolerable in humans
- Tumor growth [8, 10]: dose dependently inhibited tumor growth

Molecule: O=c1[nH]cnc2nc[nH]c12 [hypoxanthine, reference compound]
- Proliferation rate of 143B CytB cells [1]: no effect on proliferation

Molecule: antimycin [reference compound]
- Sensitivity of GOT1-null versus wild-type cells to other ETC inhibitors [6]: GOT1-null cells die; also recorded: substantially more sensitive
- TCA metabolite, aspartate and glutamate pool sizes [4]: decreases in TCA metabolites and aspartate, but not glutamate
- Viability of GOT1-null KMS-26 and Raji cells with other mitochondrial toxins [7]: GOT1-null KMS-26 and Raji cells die
- Proliferation of cell line panel [5]: blocked proliferation

Molecule: Nc1nc2nc[nH]c2c(=O)[nH]1 [guanine, reference compound]
- Proliferation rate of 143B CytB cells [1]: somewhat toxic

Molecule: C=C(C)[C@H]1Cc2c(ccc3c2O[C@@H]2COc4cc(OC)c(OC)cc4[C@@H]2C3=O)O1 [rotenone, reference compound]
- TCA metabolite, aspartate and glutamate pool sizes [4]: decreases in TCA metabolites and aspartate, but not glutamate
- Proliferation of cell line panel [5]: blocked proliferation
